In brackets after ≈: the same amount, converted by molar mass. Like-named read-outs stand apart in the source and are kept apart here.
What was measured:
Format in all cases: cell-based
S. aureus SH1000 = conditions: for MIC against Stapholococcus aureus strain SH1000: strain SH1000, text b20
Protocol: (§1) Susceptibility testing with the exception of Streptococcus pneumoniae was performed by two-fold serial dilutions in Mueller Hinton Broth supplemented with 50 μg/mL Ca^2+. Susceptibility testing of S. pneumoniae was performed by two-fold serial dilutions in Brain-Heart-Infusion Broth supplemented with 50 μg/mL Ca^2+.

S. aureus R33 (MRSA) = conditions: for MIC against Stapholococcus aureus strain R33: strain R33, text b20
Protocol: as §1

Streptococcus pneumoniae = assay: microbe, parasite or virus in culture; conditions: Streptococcus pneumoniae, read-out: MIC
Protocol: as §1

Row | Compound | MIC in μg/mL against strain S. aureus SH1000 (S. aureus SH1000) | MIC in μg/mL against strain S. aureus R33 (MRSA) (S. aureus R33 (MRSA)) | further results
1 | Deoxyactagardine B [3-(2′-aminomethyl-4′-(2″-nitro-4″-chlorophenyl)-furanyl)propylamine]monocarboxamide [Example 33] | ≦4 μg/mL | ≦4 μg/mL | 
2 | Deoxyactagardine B (2-chlorobenzylamine)monocarboxamide [Example 23] | ≦4 μg/mL | ≦4 μg/mL | 
3 | CC[C@H](C)[C@@H]1NC(=O)[C@@H]2NC(=O)[C@H](CC(C)C)NC(=O)[C@H](NC(=O)[C@@H]3CSC[C@@H](N)C(=O)N[C@@H](CO)C(=O)NCC(=O)N[C@@H](Cc4c[nH]c5ccccc45)C(=O)N[C@@H](C(C)C)C(=O)N3)[C@H](C)SC[C@H](NC(=O)[C@H](CCC(=O)O)NC1=O)C(=O)NCC(=O)N[C@H]1C(=O)N[C@@H](CC(C)C)C(=O)N[C@@H](C(C)C)C(=O)N[C@@H](CS[C@H]2C)C(=O)N[C@@H](C)C(=O)N[C@H](C(=O)NCc2ccc(F)cc2F)CS[C@H]1C [Example 15, Deoxyactagardine B (2,4-difluorobenzylamine)monocarboxamide] | 8 µg/mL (≈ 4 µM) | 8 µg/mL (≈ 4 µM) | 
4 | CC[C@H](C)[C@@H]1NC(=O)[C@@H]2NC(=O)[C@H](CC(C)C)NC(=O)[C@H](NC(=O)[C@@H]3CSC[C@@H](N)C(=O)N[C@@H](CO)C(=O)NCC(=O)N[C@@H](Cc4c[nH]c5ccccc45)C(=O)N[C@@H](C(C)C)C(=O)N3)[C@H](C)SC[C@H](NC(=O)[C@H](CCC(=O)O)NC1=O)C(=O)NCC(=O)N[C@H]1C(=O)N[C@@H](CC(C)C)C(=O)N[C@@H](C(C)C)C(=O)N[C@@H](CS[C@H]2C)C(=O)N[C@@H](C)C(=O)N[C@H](C(=O)NCc2ccc(Br)cc2)CS[C@H]1C [Example 9, Deoxyactagardine B [4-bromobenzylamine]monocarboxamide] | 8 µg/mL (≈ 3.92 µM) |  | 
5 | CC[C@H](C)[C@@H]1NC(=O)[C@@H]2NC(=O)[C@H](CC(C)C)NC(=O)[C@H](NC(=O)[C@@H]3CSC[C@@H](N)C(=O)N[C@@H](CO)C(=O)NCC(=O)N[C@@H](Cc4c[nH]c5ccccc45)C(=O)N[C@@H](C(C)C)C(=O)N3)[C@H](C)SC[C@H](NC(=O)[C@H](CCC(=O)O)NC1=O)C(=O)NCC(=O)N[C@H]1C(=O)N[C@@H](CC(C)C)C(=O)N[C@@H](C(C)C)C(=O)N[C@@H](CS[C@H]2C)C(=O)N[C@@H](C)C(=O)N[C@H](C(=O)NCCCCCCNCc2cc(Cl)cc(Cl)c2)CS[C@H]1C [Example 30, Deoxyactagardine B [6-(3′,5′-dichlorobenzylamino)-hexylamine]monocarboxamide] | 4 µg/mL (≈ 1.88 µM) | 8 µg/mL (≈ 3.75 µM) | 
6 | deoxyactagardine B N-[1-(3-dimethylamino propyl)piperazine]monocarboxamide [reference compound] |  |  | MIC against Stapholococcus aureus strain SH1000 (S. aureus SH1000): approximately 64 μL/mL; MIC against Stapholococcus aureus strain R33 (S. aureus R33 (MRSA)): approximately 64 μL/mL
7 | Deoxyactagardine B 19-[4-(4′-chlorophenyl)piperazine]monocarboxamide [Example 4] | ≦4 μg/mL | ≦4 μg/mL | 
8 | Deoxyactagardine B (2,5-dichlorobenzylamine)monocarboxamide [Example 21] | ≦4 μg/mL | ≦4 μg/mL | 
9 | Deoxyactagardine B (3,4-dichlorobenzylamine)monocarboxamide [Example 22] | ≦4 μg/mL | ≦4 μg/mL | 
10 | Deoxyactagardine B (4-chlorobenzylamine)monocarboxamide [Example 25] | ≦4 μg/mL | ≦4 μg/mL | 
11 | Deoxyactagardine B (3-chlorobenzylamine)monocarboxamide [Example 24] | ≦4 μg/mL | ≦4 μg/mL | 
12 | CC[C@H](C)[C@@H]1NC(=O)[C@@H]2NC(=O)[C@H](CC(C)C)NC(=O)[C@H](NC(=O)[C@@H]3CSC[C@@H](N)C(=O)N[C@@H](CO)C(=O)NCC(=O)N[C@@H](Cc4c[nH]c5ccccc45)C(=O)N[C@@H](C(C)C)C(=O)N3)[C@H](C)SC[C@H](NC(=O)[C@H](CCC(=O)O)NC1=O)C(=O)NCC(=O)N[C@H]1C(=O)N[C@@H](CC(C)C)C(=O)N[C@@H](C(C)C)C(=O)N[C@@H](CS[C@H]2C)C(=O)N[C@@H](C)C(=O)N[C@H](C(=O)NCCCCCCNS(=O)(=O)c2c(Cl)cc(Cl)cc2Cl)CS[C@H]1C [Example 27, Deoxyactagardine B [6-(2′,4′,6′-trichlorobenzenesulfonamido)hexylamine]monocarboxamide] | 8 µg/mL (≈ 3.61 µM) | 8 µg/mL (≈ 3.61 µM) | 
13 | CC[C@H](C)[C@@H]1NC(=O)[C@@H]2NC(=O)[C@H](CC(C)C)NC(=O)[C@H](NC(=O)[C@@H]3CSC[C@@H](N)C(=O)N[C@@H](CO)C(=O)NCC(=O)N[C@@H](Cc4c[nH]c5ccccc45)C(=O)N[C@@H](C(C)C)C(=O)N3)[C@H](C)SC[C@H](NC(=O)[C@H](CCC(=O)O)NC1=O)C(=O)NCC(=O)N[C@H]1C(=O)N[C@@H](CC(C)C)C(=O)N[C@@H](C(C)C)C(=O)N[C@@H](CS[C@H]2C)C(=O)N[C@@H](C)C(=O)N[C@H](C(=O)N2CCN(Cc3ccc(Br)cc3F)CC2)CS[C@H]1C [Example 7, Deoxyactagardine B [4-(2′-fluoro-4′-bromobenzyl)piperazine]monocarboxamide] | 8 µg/mL (≈ 3.76 µM) | 8 µg/mL (≈ 3.76 µM) | 
14 | Actagardine (3,5-dichlorobenzylamine)monocarboxamide [Example 2] | ≦4 μg/mL | ≦4 μg/mL | 
15 | Deoxyactagardine B [3-(2′-aminomethyl-4′-(2″,4″-dichlorophenyl)-furanyl)propylamine]monocarboxamide [Example 32] | ≦4 μg/mL | ≦4 μg/mL | 
16 | CC[C@H](C)[C@@H]1NC(=O)[C@@H]2NC(=O)[C@H](CC(C)C)NC(=O)[C@H](NC(=O)[C@@H]3CSC[C@@H](N)C(=O)N[C@@H](CO)C(=O)NCC(=O)N[C@@H](Cc4c[nH]c5ccccc45)C(=O)N[C@@H](C(C)C)C(=O)N3)[C@H](C)SC[C@H](NC(=O)[C@H](CCC(=O)O)NC1=O)C(=O)NCC(=O)N[C@H]1C(=O)N[C@@H](CC(C)C)C(=O)N[C@@H](C(C)C)C(=O)N[C@@H](CS[C@H]2C)C(=O)N[C@@H](C)C(=O)N[C@H](C(=O)N2CCN(c3ccc(Cl)c(Cl)c3)CC2)CS[C@H]1C [Example 10, Deoxyactagardine B [4-(3′,4′-dichlorophenyl)piperazine]monocarboxamide] | 8 µg/mL (≈ 3.83 µM) |  | 
17 | deoxyactagardine B N-[1-(1-methyl-4-piperidinyl)piperazine]monocarboxamide [reference compound] |  |  | MIC against Stapholococcus aureus strain SH1000 (S. aureus SH1000): approximately 64 μL/mL; MIC against Stapholococcus aureus strain R33 (S. aureus R33 (MRSA)): approximately 64 μL/mL
18 | CC[C@H]1OC(=O)[C@H](C)[C@@H](O[C@H]2C[C@@](C)(OC)[C@@H](O)[C@H](C)O2)[C@H](C)[C@@H](O[C@@H]2O[C@H](C)C[C@H](N(C)C)[C@H]2O)[C@](C)(O)C[C@@H](C)C(=O)[C@H](C)[C@@H](O)[C@]1(C)O [Erythromycin, reference compound] |  |  | MIC (Streptococcus pneumoniae; isolate QB37301, penicillin Resistant): > 32 mg/L; MIC (Streptococcus pneumoniae; isolate QB37302, penicillin Resistant): > 32 mg/L; MIC (Streptococcus pneumoniae; isolate QB37303, penicillin Intermediate): ≤ 0.015 mg/L; MIC (Streptococcus pneumoniae; isolate QB37304, penicillin Susceptible): 8 mg/L (≈ 10.9 µM); MIC (Streptococcus pneumoniae; isolate QB37306, penicillin Susceptible): ≤ 0.015 mg/L; MIC (Streptococcus pneumoniae; isolate QB37307, penicillin Intermediate): ≤ 0.015 mg/L; MIC (Streptococcus pneumoniae; isolate QB37308, penicillin Susceptible): ≤ 0.015 mg/L; MIC (Streptococcus pneumoniae; isolate QB37309, penicillin Resistant): 2 mg/L (≈ 2.73 µM); MIC (Streptococcus pneumoniae; isolate QB37310, penicillin Resistant): > 32 mg/L; MIC (Streptococcus pneumoniae; isolate QB37311, penicillin Resistant): > 32 mg/L; MIC (Streptococcus pneumoniae; isolate QB37312, penicillin Intermediate): > 32 mg/L; MIC (Streptococcus pneumoniae; isolate QB37313, penicillin Susceptible): > 32 mg/L; MIC (Streptococcus pneumoniae; isolate QB37314, penicillin Resistant): > 32 mg/L; MIC (Streptococcus pneumoniae; isolate QB37315, penicillin Susceptible): ≤ 0.015 mg/L; MIC (Streptococcus pneumoniae; isolate QB37316, penicillin Susceptible): ≤ 0.015 mg/L; MIC (Streptococcus pneumoniae; isolate QB37317, penicillin Susceptible): ≤ 0.015 mg/L; MIC (Streptococcus pneumoniae; isolate QB37318, penicillin Resistant): 4 mg/L (≈ 5.45 µM); MIC (Streptococcus pneumoniae; isolate QB37319, penicillin Resistant): > 32 mg/L

Source: patent publication US8729031B2, “Compounds” (priority 2009, dated 2014)
